These compounds were tested against T1, PI3Kδ (Homo sapiens, UniProt O00329) (assay: PI3Kδ inhibition, modified PIK3CD Adapta TR-FRET assay). Conditions: recombinant GST-tagged full length PIK3CD co-expressed with PIK3R1 (p85α); 2 μM ATP, 50 μM PIP2; read-out: PI3Kδ Inhibition (pIC50) (converted).
T1 construct: The protein is full length and co-expressed with untagged PIK3R1; GST; purchased Invitrogen PV5274
Assay type: biochemical
Procedure: The activity of compounds as PI3Kδ inhibitors may be determined by a variety of methods, including in vitro and in vivo methods. The following in vitro assay measures a test compound's ability to inhibit PI3Kδ-mediated phosphorylation of PIP2 and ATP.
Recombinant GST-tagged PIK3CD is purchased from Invitrogen (Part Number: PV5274). The protein is full length and co-expressed with untagged PIK3R1, phosphoinositide-3-kinase regulatory subunit 1 (p85α). The protein is stored at −20° C. in 50 mM TRIS (pH 7.5), 150 mM NaCl, 0.5 mM EDTA, 0.02% Triton® X-100, 2 mM DTT, and 50% glycerol.
A modified PIK3CD Adapta® assay (Invitrogen, Carlsbad, Calif.) is used to measure PI3Kδ inhibition of the example compounds. The assay has two phases. In the first phase, kinase reaction components, which include the enzyme (PIK3CD), substrates (PIP2, ATP), test compound (inhibitor), and assay buffer are added to each well, and the reaction is allowed to incubate for a pre-determined period of time. […] In the presence of the inhibitor, the amount of ADP formed by the kinase reaction is reduced, and the resulting intact antibody-tracer interaction maintains a high TR-FRET signal.
The reaction buffer contains 50 mM Hepes (pH 7.5), 3 mM MgCl2, 1 mM EGTA, 100 mM NaCl, 0.03% CHAPS; 2 mM DTT is added fresh prior to each experiment. […] Next, test compounds (2 μL) from a source plate (5% dilution plate) are introduced into the wells. The final DMSO concentration in each assay well is 1%. […] Other wells contain test compounds serially diluted across the plate 11 times for a total of 12 data points. The kinase reactions are carried out at room temperature and are initiated by the addition of 4 μL of solution containing 2 μM ATP and 50 μM PIP2. […] This emission signal is referenced or “ratioed” to the emission from Eu at 620 nm. […] The percent inhibition for a given inhibitor concentration is computed from % conversion for the reaction and for the positive and negative controls.

T1 sequence (O00329 whole entry): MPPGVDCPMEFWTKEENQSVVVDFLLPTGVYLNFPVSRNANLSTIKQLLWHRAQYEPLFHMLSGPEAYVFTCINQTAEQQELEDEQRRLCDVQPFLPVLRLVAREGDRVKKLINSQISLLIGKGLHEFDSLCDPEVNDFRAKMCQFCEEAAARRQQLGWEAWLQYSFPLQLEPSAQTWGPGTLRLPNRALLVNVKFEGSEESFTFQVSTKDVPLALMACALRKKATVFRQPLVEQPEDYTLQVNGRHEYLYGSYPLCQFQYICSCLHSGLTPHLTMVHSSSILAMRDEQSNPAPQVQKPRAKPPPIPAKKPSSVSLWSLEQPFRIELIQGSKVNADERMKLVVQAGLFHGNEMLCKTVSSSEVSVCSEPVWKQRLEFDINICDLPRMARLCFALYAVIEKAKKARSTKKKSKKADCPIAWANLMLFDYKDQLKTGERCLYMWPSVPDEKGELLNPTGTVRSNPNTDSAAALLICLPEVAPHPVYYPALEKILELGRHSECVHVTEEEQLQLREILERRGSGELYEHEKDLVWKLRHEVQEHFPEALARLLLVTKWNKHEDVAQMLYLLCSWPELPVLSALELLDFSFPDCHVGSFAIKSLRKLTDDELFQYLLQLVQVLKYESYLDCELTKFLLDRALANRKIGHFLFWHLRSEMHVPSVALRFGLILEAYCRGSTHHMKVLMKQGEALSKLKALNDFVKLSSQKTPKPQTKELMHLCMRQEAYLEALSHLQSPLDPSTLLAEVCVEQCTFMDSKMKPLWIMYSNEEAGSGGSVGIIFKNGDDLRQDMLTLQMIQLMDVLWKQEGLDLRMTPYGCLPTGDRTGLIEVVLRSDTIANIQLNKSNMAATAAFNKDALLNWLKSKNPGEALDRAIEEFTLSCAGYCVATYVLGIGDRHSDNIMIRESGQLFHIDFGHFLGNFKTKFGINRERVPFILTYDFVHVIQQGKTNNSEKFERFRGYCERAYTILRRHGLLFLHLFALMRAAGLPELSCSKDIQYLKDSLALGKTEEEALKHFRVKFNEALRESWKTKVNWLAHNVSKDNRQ
T1 sequence (P27986 whole entry partner): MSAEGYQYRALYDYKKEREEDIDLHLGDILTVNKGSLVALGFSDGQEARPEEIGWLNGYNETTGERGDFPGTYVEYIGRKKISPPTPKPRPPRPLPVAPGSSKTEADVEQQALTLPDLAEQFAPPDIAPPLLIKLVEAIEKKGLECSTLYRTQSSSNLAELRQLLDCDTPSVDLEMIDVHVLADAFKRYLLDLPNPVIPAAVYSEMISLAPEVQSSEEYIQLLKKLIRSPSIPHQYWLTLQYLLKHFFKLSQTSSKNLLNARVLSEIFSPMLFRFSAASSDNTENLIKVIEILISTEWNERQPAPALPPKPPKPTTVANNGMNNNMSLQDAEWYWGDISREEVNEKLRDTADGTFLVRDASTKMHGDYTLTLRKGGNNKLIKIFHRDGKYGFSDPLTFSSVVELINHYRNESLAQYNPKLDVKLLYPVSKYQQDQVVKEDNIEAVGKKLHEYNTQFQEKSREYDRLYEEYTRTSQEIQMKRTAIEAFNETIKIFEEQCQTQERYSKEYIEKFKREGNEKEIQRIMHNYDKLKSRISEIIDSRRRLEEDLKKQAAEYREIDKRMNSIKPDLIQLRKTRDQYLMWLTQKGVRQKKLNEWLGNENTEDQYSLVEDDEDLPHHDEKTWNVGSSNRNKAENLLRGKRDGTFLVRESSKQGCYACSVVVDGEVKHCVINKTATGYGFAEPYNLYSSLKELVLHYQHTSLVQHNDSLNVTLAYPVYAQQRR

| IC50 [nM] | Structure (SMILES) |
| --- | --- |
| 631 | CS(=O)(=O)c1ccc(CN2C[C@H]3COCCN3c3nc(-c4cccc5[nH]ccc45)ncc32)cc1 [Example 28, (S)-2-(1H-indol-4-yl)-5-(4-(methylsulfonyl)benzyl)-5,6,6a,7,9,10-hexahydro-[1,4]oxazino[3,4-h]pteridine] |
| 5.01 | CS(=O)(=O)c1ccc(CN2C[C@@H]3COCCN3c3nc(-c4cccc5[nH]ccc45)ncc32)cc1 [Example 29, (R)-2-(1H-indol-4-yl)-5-(4-(methylsulfonyl)benzyl)-5,6,6a,7,9,10-hexahydro-[1,4]oxazino[3,4-h]pteridine] |
| 79.4 | c1ccc(OCCN2CC3COCCN3c3nc(-c4cccc5[nH]ccc45)ncc32)cc1 (stereo not drawn) [Example 32, 2-(1H-indol-4-yl)-5-(2-phenoxyethyl)-5,6,6a,7,9,10-hexahydro-[1,4]oxazino[3,4-h]pteridine] |
| 12.6 | O=C(CCN1CC2COCCN2c2nc(-c3cccc4[nH]ccc34)ncc21)NCc1ccco1 (stereo not drawn) [Example 34, 3-(2-(1H-indol-4-yl)-6a,7,9,10-tetrahydro-[1,4]oxazino[3,4-h]pteridin-5(6H)-yl)-N-(furan-2-ylmethyl)propanamide] |
| 12.6 | c1ccc(-c2nnc(CN3CC4COCCN4c4nc(-c5cccc6[nH]ccc56)ncc43)o2)cc1 (stereo not drawn) [Example 38, 2-(1H-indol-4-yl)-5-((5-phenyl-1,3,4-oxadiazol-2-yl)methyl)-5,6,6a,7,9,10-hexahydro-[1,4]oxazino[3,4-h]pteridine] |
| 20 | c1cc(-c2ncc3c(n2)N2CCOCC2CN3Cc2ncco2)c2cc[nH]c2c1 (stereo not drawn) [Example 39, 2-(1H-indol-4-yl)-5-(oxazol-2-ylmethyl)-5,6,6a,7,9,10-hexahydro-[1,4]oxazino[3,4-h]pteridine] |
| 15.8 | c1ccc(-n2cc(CN3CC4COCCN4c4nc(-c5cccc6[nH]ccc56)ncc43)nn2)cc1 (stereo not drawn) [Example 40] |
| 31.6 | Cc1ccccc1CNC(=O)CN1CC2COCCN2c2nc(-c3cccc4[nH]ccc34)ncc21 (stereo not drawn) [Example 41, 2-(2-(1H-indol-4-yl)-6a,7,9,10-tetrahydro-[1,4]oxazino[3,4-h]pteridin-5(6H)-yl)-N-(2-methylbenzyl)acetamide] |
| 501 | CC(C)NC(=O)CN1CC2COCCN2c2nc(-c3cccc4[nH]ccc34)ncc21 (stereo not drawn) [Example 42, 2-(2-(1H-indol-4-yl)-6a,7,9,10-tetrahydro-[1,4]oxazino[3,4-h]pteridin-5(6H)-yl)-N-isopropylacetamide] |
| 398 | CN(C)C(=O)CN1CC2COCCN2c2nc(-c3cccc4[nH]ccc34)ncc21 (stereo not drawn) [Example 43, 2-(2-(1H-indol-4-yl)-6a,7,9,10-tetrahydro-[1,4]oxazino[3,4-h]pteridin-5(6H)-yl)-N,N-dimethylacetamide] |
| 316 | CC(C)N(C)C(=O)CN1CC2COCCN2c2nc(-c3cccc4[nH]ccc34)ncc21 (stereo not drawn) [Example 44, 2-(2-(1H-indol-4-yl)-6a,7,9,10-tetrahydro-[1,4]oxazino[3,4-h]pteridin-5(6H)-yl)-N-isopropyl-N-methylacetamide] |
| 251 | N#Cc1ccccc1CN1CC2COCCN2c2nc(-c3cccc4[nH]ccc34)ncc21 (stereo not drawn) [Example 45, 2-((2-(1H-indol-4-yl)-6a,7,9,10-tetrahydro-[1,4]oxazino[3,4-h]pteridin-5(6H)-yl)methyl)benzonitrile] |
| 316 | N#Cc1ccc(F)cc1CN1CC2COCCN2c2nc(-c3cccc4[nH]ccc34)ncc21 (stereo not drawn) [Example 46, 2-((2-(1H-indol-4-yl)-6a,7,9,10-tetrahydro-[1,4]oxazino[3,4-h]pteridin-5(6H)-yl)methyl)-4-fluorobenzonitrile] |
| 158 | COc1cc(C#N)ccc1CN1CC2COCCN2c2nc(-c3cccc4[nH]ccc34)ncc21 (stereo not drawn) [Example 47, 4-((2-(1H-indol-4-yl)-6a,7,9,10-tetrahydro-[1,4]oxazino[3,4-h]pteridin-5(6H)-yl)methyl)-3-methoxybenzonitrile] |
| 251 | O=C(Cc1ccccc1)N1CC2COCCN2c2nc(-c3cccc4[nH]ccc34)ncc21 (stereo not drawn) [Example 48, 1-(2-(1H-indol-4-yl)-6a,7,9,10-tetrahydro-[1,4]oxazino[3,4-h]pteridin-5(6H)-yl)-2-phenylethanone] |
| 200 | O=C(Cc1cccs1)N1CC2COCCN2c2nc(-c3cccc4[nH]ccc34)ncc21 (stereo not drawn) [Example 49, 1-(2-(1H-indol-4-yl)-6a,7,9,10-tetrahydro-[1,4]oxazino[3,4-h]pteridin-5(6H)-yl)-2-(thiophen-2-yl)ethanone] |
| 316 | COc1cccc(CC(=O)N2CC3COCCN3c3nc(-c4cccc5[nH]ccc45)ncc32)c1 (stereo not drawn) [Example 50, 1-(2-(1H-indol-4-yl)-6a,7,9,10-tetrahydro-[1,4]oxazino[3,4-h]pteridin-5(6H)-yl)-2-(3-methoxyphenyl)ethanone] |

The next lines start with the compound.

| Structure (SMILES) | IC50 [nM] |
| --- | --- |
| CS(=O)(=O)c1ccc(CN2CC3COCCN3c3nc(-c4cccc5[nH]c(C(F)(F)F)cc45)ncc32)cc1 (stereo not drawn) [Example 21, 5-(4-(methylsulfonyl)benzyl)-2-(2-(trifluoromethyl)-1H-indol-4-yl)-5,6,6a,7,9,10-hexahydro-[1,4]oxazino[3,4-h]pteridine] | 1260 |
| CS(=O)(=O)c1ccc(CN2CC3COCCN3c3nc(-c4cccc5[nH]ncc45)ncc32)cc1 (stereo not drawn) [Example 22, 2-(1H-indazol-4-yl)-5-(4-(methylsulfonyl)benzyl)-5,6,6a,7,9,10-hexahydro-[1,4]oxazino[3,4-h]pteridine] | 20 |
| CS(=O)(=O)c1ccc(CN2CC3COCCN3c3nc(-c4cncc5[nH]ccc45)ncc32)cc1 (stereo not drawn) [Example 23, 5-(4-(methylsulfonyl)benzyl)-2-(1H-pyrrolo[2,3-c]pyridin-4-yl)-5,6,6a,7,9,10-hexahydro-[1,4]oxazino[3,4-h]pteridine] | 5.01 |
| CS(=O)(=O)c1ccc(CN2CC3COCCN3c3nc(-c4cnc5cc[nH]c5c4)ncc32)cc1 (stereo not drawn) [Example 24, 5-(4-(methylsulfonyl)benzyl)-2-(1H-pyrrolo[3,2-b]pyridin-6-yl)-5,6,6a,7,9,10-hexahydro-[1,4]oxazino[3,4-h]pteridine] | 63.1 |
| CS(=O)(=O)c1ccc(CN2CC3COCCN3c3nc(-c4cnc5[nH]ccc5c4)ncc32)cc1 (stereo not drawn) [Example 25, 5-(4-(methylsulfonyl)benzyl)-2-(1H-pyrrolo[2,3-b]pyridin-5-yl)-5,6,6a,7,9,10-hexahydro-[1,4]oxazino[3,4-h]pteridine] | 158 |
| Cc1nc(-c2cccc3[nH]ccc23)nc2c1N(Cc1ccc(S(C)(=O)=O)cc1)CC1COCCN21 (stereo not drawn) [Example 26, 2-(1H-indol-4-yl)-4-methyl-5-(4-(methylsulfonyl)benzyl)-5,6,6a,7,9,10-hexahydro-[1,4]oxazino[3,4-h]pteridine] | 251 |
| Cc1nc(-c2cccc3[nH]ccc23)nc2c1N(CC1CC1)CC1COCCN21 (stereo not drawn) [Example 27, 5-(cyclopropylmethyl)-2-(1H-indol-4-yl)-4-methyl-5,6,6a,7,9,10-hexahydro-[1,4]oxazino[3,4-h]pteridine] | 251 |
| CS(=O)(=O)c1ccc(CN2C[C@@H]3COCCN3c3nc(-c4cncc5[nH]ccc45)ncc32)cc1 [Example 30, (R)-5-(4-(methylsulfonyl)benzyl)-2-(1H-pyrrolo[2,3-c]pyridin-4-yl)-5,6,6a,7,9,10-hexahydro-[1,4]oxazino[3,4-h]pteridine] | 1.26 |
| CCc1nnc(CN2C[C@@H]3COCCN3c3nc(-c4cccc5[nH]ccc45)ncc32)o1 [Example 31, (R)-5-((5-ethyl-1,3,4-oxadiazol-2-yl)methyl)-2-(1H-indol-4-yl)-5,6,6a,7,9,10-hexahydro-[1,4]oxazino[3,4-h]pteridine] | 7.94 |
| c1csc(-c2nnc(CN3CC4COCCN4c4nc(-c5cccc6[nH]ccc56)ncc43)o2)c1 (stereo not drawn) [Example 33, 2-(1H-indol-4-yl)-5-((5-(thiophen-2-yl)-1,3,4-oxadiazol-2-yl)methyl)-5,6,6a,7,9,10-hexahydro-[1,4]oxazino[3,4-h]pteridine] | 12.6 |
| CCc1nnc(CN2CC3COCCN3c3nc(-c4cccc5[nH]ccc45)ncc32)o1 (stereo not drawn) [Example 35, 5-((5-ethyl-1,3,4-oxadiazol-2-yl)methyl)-2-(1H-indol-4-yl)-5,6,6a,7,9,10-hexahydro-[1,4]oxazino[3,4-h]pteridine] | 10 |
| c1cc(-c2ncc3c(n2)N2CCOCC2CN3Cc2nnnn2C2CC2)c2cc[nH]c2c1 (stereo not drawn) [Example 36, 5-((1-cyclopropyl-1H-tetrazol-5-yl)methyl)-2-(1H-indol-4-yl)-5,6,6a,7,9,10-hexahydro-[1,4]oxazino[3,4-h]pteridine] | 126 |
| c1ccc(-c2nc(CN3CC4COCCN4c4nc(-c5cccc6[nH]ccc56)ncc43)co2)cc1 (stereo not drawn) [Example 37, 2-(1H-indol-4-yl)-5-((2-phenyloxazol-4-yl)methyl)-5,6,6a,7,9,10-hexahydro-[1,4]oxazino[3,4-h]pteridine] | 316 |

From US8791107B2, “N-substituted oxazinopteridines and oxazinopteridinones” (Takeda Pharmaceutical Company Limited, priority 2011, dated 2014)
